# Calls of active or inactive are those of the source. The rule behind the calls is not given here.
# What was measured:
# [1] = target: T1, N-acetylgalactosamine-6-sulfatase (Homo sapiens) (UniProt P34059); assay: Chaperone activity at recombinant human GALNS expressed in HEK293 cells assessed as fold increase in extracellular enzyme activity using 4MUGPS as substrate at 1 uM incubated for 48 hrs by fluorescence assay relative to control; format: cell-based
# T1 sequence (whole entry): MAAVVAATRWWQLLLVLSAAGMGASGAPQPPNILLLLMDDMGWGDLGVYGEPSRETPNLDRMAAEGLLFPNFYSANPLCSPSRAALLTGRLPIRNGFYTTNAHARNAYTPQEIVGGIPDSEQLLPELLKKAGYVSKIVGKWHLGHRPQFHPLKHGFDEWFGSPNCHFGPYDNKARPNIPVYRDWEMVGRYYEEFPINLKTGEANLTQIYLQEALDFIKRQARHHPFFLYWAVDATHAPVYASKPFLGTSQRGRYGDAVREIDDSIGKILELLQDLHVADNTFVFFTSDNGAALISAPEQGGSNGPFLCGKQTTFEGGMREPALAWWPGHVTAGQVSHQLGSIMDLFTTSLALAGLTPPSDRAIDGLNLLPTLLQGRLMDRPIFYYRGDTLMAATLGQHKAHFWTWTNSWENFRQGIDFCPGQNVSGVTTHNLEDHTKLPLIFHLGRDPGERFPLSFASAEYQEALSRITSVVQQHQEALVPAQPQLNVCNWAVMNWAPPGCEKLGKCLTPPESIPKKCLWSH
# [2] = target: T1, N-acetylgalactosamine-6-sulfatase (Homo sapiens); assay: Chaperone activity at recombinant human GALNS expressed in HEK293 cells assessed as fold increase in extracellular enzyme activity using 4MUGPS as substrate at 10 uM incubated for 48 hrs by fluorescence assay relative to control; format: cell-based
# Homo sapiens [3] = species on record: Homo sapiens; assay: (§1) Chaperone activity at GALNS p.R386C/p.F285 deletion mutant in mucopolysaccharidosis IVA patient-derived fibroblasts GM00593 assessed as reduction in lysosomal mass by measuring mean fluorescence intensity at 10 uM incubated for 36 hrs by deep red Lysotracker based flow cytometric analysis (reference value: 61.8 +/- 8.4%); parameters: scale not given: the % may be the effect or the level left
# Homo sapiens [4] = species on record: Homo sapiens; assay: Chaperone activity at GALNS p.R61W/p.W405_T406 deletion mutant in mucopolysaccharidosis IVA patient-derived fibroblasts GM01361 assessed as fold increase in enzyme activity using 4MUGPS as substrate at 0.1 uM incubated for 48 hrs by fluorescence assay relative to control
# Homo sapiens [5] = species on record: Homo sapiens; assay: (§2) Chaperone activity at GALNS p.R61W/p.W405_T406 deletion mutant in mucopolysaccharidosis patient-derived fibroblasts GM01361 assessed as reduction in lysosomal mass by measuring mean fluorescence intensity at 0.1 uM incubated for 36 hrs by deep red Lysotracker based flow cytometric analysis (reference value: 48.3 +/- 7.7%); parameters: scale not given: the % may be the effect or the level left
# [6] = Protein binding in plasma of parkinson's disease patients; format: ADME, cell-free; details: human, read-out: PPB
# [7] = target: T1, N-acetylgalactosamine-6-sulfatase (Homo sapiens); assay: Chaperone activity at GALNS in human fibroblasts assessed as change in lysosomal mass at 0.01 to 10 uM incubated for 36 hrs by deep red Lysotracker based flow cytometric analysis
# Homo sapiens [8] = species on record: Homo sapiens; assay: as §1, with “1” for “10”; parameters: scale not given: the % may be the effect or the level left
# Homo sapiens [9] = species on record: Homo sapiens; assay: Chaperone activity at GALNS p.A393S mutant in mucopolysaccharidosis IVA patient-derived fibroblasts GM00958 assessed as enzyme activity using 4MUGPS as substrate at 0.001 to 10 uM incubated for 48 hrs by fluorescence assay
# [10] = target: T1, N-acetylgalactosamine-6-sulfatase (Homo sapiens); assay: Inhibition of recombinant human GALNS expressed in Pichia pastoris at 0.001 to 50 uM using 4MUGPS as substrate incubated for 18 hrs by fluorescence assay relative to control
# Homo sapiens [11] = species on record: Homo sapiens; assay: Chaperone activity at GALNS p.R386C/p.F285 deletion mutant in mucopolysaccharidosis IVA patient-derived fibroblasts GM00593 assessed as fold increase in enzyme activity using 4MUGPS as substrate at 10 uM incubated for 48 hrs by fluorescence assay relative to control
# Homo sapiens [12] = species on record: Homo sapiens; assay: Chaperone activity at GALNS p.R61W/p.W405_T406 deletion mutant in mucopolysaccharidosis IVA patient-derived fibroblasts GM01361 assessed as enzyme activity using 4MUGPS as substrate at 1 to 10 uM incubated for 48 hrs by fluorescence assay
# Homo sapiens [13] = species on record: Homo sapiens; assay: as §2, with “mucopolysaccharidosis IVA” for “mucopolysaccharidosis”, “0.01” for “0.1”; parameters: scale not given: the % may be the effect or the level left
# [14] = Total plasma concentration in parkinson's disease patients; format: ADME, cell-free; details: human
smiles,measurement,setting,value
CC(C)C[C@H]1C(=O)N2CCC[C@H]2[C@]2(O)O[C@](NC(=O)[C@@H]3C=C4c5cccc6[nH]c(Br)c(c56)C[C@H]4N(C)C3)(C(C)C)C(=O)N12 [BROMOCRIPTINE],fold change (FC),[1],1.36
same,fold change (FC),[2],1.48
same,Activity,Homo sapiens [3],10.5%
same,fold change (FC),Homo sapiens [4],1.5
same,Activity,Homo sapiens [5],7.3%
same,fraction unbound,[6],0.04 to 0.1
same,Activity,[7],inactive
same,Activity,Homo sapiens [8],18.2%
same,Activity,Homo sapiens [9],inactive
same,inhibition,[10],30%
same,fold change (FC),Homo sapiens [11],1.52
same,Activity,Homo sapiens [12],inactive
same,Activity,Homo sapiens [13],11.7%
same,concentration,[14],0.01 to 0.25 µM
